# Legend:
# Escherichia coli = assay: Antimicrobial screening by agar dilution, Escherichia coli; format: cell-based; settings: after 10, 20, 40 and 60 minutes at all dilutions 1:100, 1:200, 1:400, 1:800
# Method: (§1) The antibacterial properties of the synthesized compound 2-benzo-[3,4-b]quinolino-[b,g]indeno[1′,2′:3,4]fluoreno-[1,2-d]oxonine-24-chloro-5,11,16,21-tetraone were studied by the method of agar dilution. Test solutions of each compound was prepared in concentration of 1% using dimethylformamide as a solvent then they are diluted in physiological solution to obtain the final experimental dilutions 1:100, 1:200, 1:400, 1:800. The effect of these substances are compared with furacillin in a controllable study. The testing microbes used were gram positive bacteria Staphylococcus aureus, gram negative bacteria Pseudomonas aeruginosa and Escherichia coli and Candida albicans fungus. The experiments used for this survey were meat-pentonlu agar (EPA) for cultivation of bacteria and Saburo environment for the fungus. Each experiment used 1 mL of test solution on each plate […]. Two drops of emulsified with microbes feel were added. All experimental samples were taken from the agar after 10, 20, 40, 60 minutes in the environment on the basis of Patrk planted. The bacteria were cultivated at a temperature of 37° C. for 1 day and the mushroom was kept in a thermostat for […] at a temperature of 28° C. Then results were checked.
# Staphylococcus aureus = assay: Antimicrobial screening by agar dilution, Staphylococcus aureus; format: cell-based; settings: after 10, 20, 40 and 60 minutes at all dilutions 1:100, 1:200, 1:400, 1:800
# Method: as §1
# Pseudomonas aeruginosa = assay: Antimicrobial screening by agar dilution, Pseudomonas aeruginosa; format: cell-based; settings: after 10, 20, 40 and 60 minutes at all dilutions 1:100, 1:200, 1:400, 1:800
# Method: as §1
# Candida albicans = assay: Antimicrobial screening by agar dilution, Candida albicans; format: cell-based; settings: after 10, 20, 40 and 60 minutes at all dilutions 1:100, 1:200, 1:400, 1:800
# Method: as §1
smiles,measurement,setting,value
"O=C1Oc2nc3ccc(Cl)cc3cc2-c2c(c3c4ccccc4c(=O)c3c3c2c(=O)c2ccccc23)C(=O)c2ccccc21 [2-benzo-[3,4-b]quinolino-[b,g]indeno[1′,2′:3,4]fluoreno-[1,2-d]oxonine-24-chloro-5,11,16,21-tetraone]","inhibition activity, Escherichia coli",Escherichia coli,highest inhibition activity
same,melting point,,241 °C
same,"inhibition activity, Staphylococcus aureus",Staphylococcus aureus,highest inhibition activity
same,"inhibition activity, Pseudomonas aeruginosa",Pseudomonas aeruginosa,highest inhibition activity
same,"inhibition activity, Candida albicans",Candida albicans,highest inhibition activity

# Reference: patent publication US11932651B1, “2-benzo-[3,4-B]quinolino-[b,g]indeno[1′,2′:3,4]fluoreno-[1,2-d]oxonine-24-chloro-5,11,16,21-tetraone as an antimicrobial compound” (KING FAISAL UNIVERSITY, priority 2023, dated 2024)
